Measurements as given in patent publication US20240156800A1, “EP300 DEGRADER AND USES THEREOF IN NEUROBLASTOMA” (DANA-FARBER CANCER INSTITUTE, INC., priority 2021, published 2024).

Tests used:
[1] = target: T1, CBP (Homo sapiens, UniProt Q92793); assay: Immunohistochemistry of CBP in Kelly cell xenografts; format: in vivo; settings: 40 mg/Kg once daily
T1 construct: Cells growing in culture were lysed for whole cell lysates; endogenous in cells; host or cells: Kelly, NGP, SIMA, BE2C neuroblastoma cells; Kelly xenografts in NSG mice
T1 sequence (Q92793 whole entry): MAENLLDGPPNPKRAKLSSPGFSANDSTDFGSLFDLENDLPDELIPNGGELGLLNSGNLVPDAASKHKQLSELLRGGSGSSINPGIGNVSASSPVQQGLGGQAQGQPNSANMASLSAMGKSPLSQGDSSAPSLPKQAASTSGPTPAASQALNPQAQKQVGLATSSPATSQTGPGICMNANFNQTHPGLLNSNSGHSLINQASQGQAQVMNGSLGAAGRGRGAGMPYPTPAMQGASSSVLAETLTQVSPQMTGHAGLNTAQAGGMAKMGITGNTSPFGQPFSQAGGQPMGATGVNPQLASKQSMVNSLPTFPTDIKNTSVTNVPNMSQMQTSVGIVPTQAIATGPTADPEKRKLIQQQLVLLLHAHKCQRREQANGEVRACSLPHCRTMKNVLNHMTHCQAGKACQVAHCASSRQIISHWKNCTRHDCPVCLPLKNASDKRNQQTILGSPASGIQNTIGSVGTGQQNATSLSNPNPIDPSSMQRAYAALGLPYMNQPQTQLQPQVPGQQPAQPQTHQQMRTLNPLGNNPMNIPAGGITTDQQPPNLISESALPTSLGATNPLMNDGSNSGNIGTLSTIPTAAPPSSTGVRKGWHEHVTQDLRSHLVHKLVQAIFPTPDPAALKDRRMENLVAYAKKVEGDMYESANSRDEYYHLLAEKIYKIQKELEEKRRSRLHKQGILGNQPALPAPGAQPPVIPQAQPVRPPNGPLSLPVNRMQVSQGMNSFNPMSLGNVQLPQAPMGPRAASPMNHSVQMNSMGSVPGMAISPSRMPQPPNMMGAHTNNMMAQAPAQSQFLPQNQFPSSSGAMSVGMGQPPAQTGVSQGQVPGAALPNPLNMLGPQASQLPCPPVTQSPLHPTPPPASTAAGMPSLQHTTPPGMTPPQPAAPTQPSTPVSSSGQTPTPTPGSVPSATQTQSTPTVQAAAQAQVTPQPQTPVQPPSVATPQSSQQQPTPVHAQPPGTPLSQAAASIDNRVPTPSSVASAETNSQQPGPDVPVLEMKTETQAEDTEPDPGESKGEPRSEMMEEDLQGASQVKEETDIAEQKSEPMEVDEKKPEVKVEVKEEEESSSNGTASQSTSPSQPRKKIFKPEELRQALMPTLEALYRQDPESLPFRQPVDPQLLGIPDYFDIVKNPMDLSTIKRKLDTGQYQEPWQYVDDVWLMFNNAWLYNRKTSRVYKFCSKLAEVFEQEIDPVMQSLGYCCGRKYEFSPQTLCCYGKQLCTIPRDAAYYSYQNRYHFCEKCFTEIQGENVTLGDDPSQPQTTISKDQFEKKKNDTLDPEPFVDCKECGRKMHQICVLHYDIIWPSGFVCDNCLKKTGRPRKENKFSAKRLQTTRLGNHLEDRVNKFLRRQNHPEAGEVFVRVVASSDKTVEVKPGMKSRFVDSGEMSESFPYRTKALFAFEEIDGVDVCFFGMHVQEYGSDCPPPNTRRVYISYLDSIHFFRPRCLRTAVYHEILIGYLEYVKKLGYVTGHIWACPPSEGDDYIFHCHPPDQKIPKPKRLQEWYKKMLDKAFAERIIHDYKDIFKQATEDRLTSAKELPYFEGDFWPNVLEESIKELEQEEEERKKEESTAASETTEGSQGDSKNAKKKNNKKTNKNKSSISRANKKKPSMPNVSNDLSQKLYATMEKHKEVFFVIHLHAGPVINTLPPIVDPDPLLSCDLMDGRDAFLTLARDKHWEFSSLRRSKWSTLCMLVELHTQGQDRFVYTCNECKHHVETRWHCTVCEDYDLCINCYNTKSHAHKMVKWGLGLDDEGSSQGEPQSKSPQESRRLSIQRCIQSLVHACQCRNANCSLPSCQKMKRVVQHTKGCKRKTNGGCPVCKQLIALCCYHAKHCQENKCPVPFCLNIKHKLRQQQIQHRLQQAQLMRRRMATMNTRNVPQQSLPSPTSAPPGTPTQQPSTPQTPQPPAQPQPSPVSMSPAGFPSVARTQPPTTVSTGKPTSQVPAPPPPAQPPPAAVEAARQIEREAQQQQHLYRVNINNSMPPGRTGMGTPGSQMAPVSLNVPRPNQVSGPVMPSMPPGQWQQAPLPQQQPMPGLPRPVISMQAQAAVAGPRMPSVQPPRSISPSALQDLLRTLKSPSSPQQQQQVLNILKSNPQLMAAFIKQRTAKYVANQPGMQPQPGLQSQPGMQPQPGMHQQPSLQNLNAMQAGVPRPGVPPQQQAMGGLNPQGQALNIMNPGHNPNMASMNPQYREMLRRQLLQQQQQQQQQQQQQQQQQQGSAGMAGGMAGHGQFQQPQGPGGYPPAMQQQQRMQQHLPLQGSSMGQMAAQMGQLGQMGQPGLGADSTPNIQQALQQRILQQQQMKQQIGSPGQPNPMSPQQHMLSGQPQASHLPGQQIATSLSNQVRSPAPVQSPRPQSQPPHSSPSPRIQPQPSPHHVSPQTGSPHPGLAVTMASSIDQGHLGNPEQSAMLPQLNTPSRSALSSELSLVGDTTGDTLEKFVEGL
Experimental: Separately, eight animals were xenografted as described above, and treated with vehicle (n=4) or JQAD1 (n=4) at 40 mg/kg IP daily for 14 days. These animals were sacrificed at day 14, following which tumor was extracted, and divided for immunohistochemical analysis or analysis of RNA expression by RNA sequencing (RNA-seq). Immunohistochemistry was performed on the Leica® Bond™ III automated staining platform. Antibody EP300 from Cell Signaling Technology®, catalog number 86377, clone D8Z4E, was run at 1:50 dilution using the Leica® Biosystems Refine Detection Kit with citrate antigen retrieval. Antibody KAT3A/CBP (catalog number ab2832, polyclonal, Abcam) was run at 1:200 using the Leica® Biosystems Refine Detection Kit with ethylenediaminetetraacetic acid (EDTA) antigen retrieval.

[2] = system: MYCN; assay: Western blotting of MYCN (whole lysates and chromatin extracts); format: cell-based, human; settings: Kelly cells, 0.5 and 1 μM, 24 h, chromatin extracts
Experimental: Cells growing in culture were lysed for whole cell lysates as described in Durbin et al. Nat. Genet. 50:1240-1246 (2018) and Wang et al. Nat. Commun. 10:5622 (2019). Nuclear lysates were prepared using the NE-PER® nuclear lysate kit (Thermo Scientific™) according to the manufacturer's protocol. Chromatin lysates were prepared with the total histone extraction kit (Epigentek). Briefly, equivalent amounts of protein were resolved by western blotting using 4-12% Bis-Tris NuPAGE™ gels (Thermo-Fisher Scientific) prior to transfer, and immunoblotting using primary antibodies to: MYCN (1:1000, Cell Signaling Technology®), H3K27ac (1:1000, Abcam), total H3 (1:1000, Cell Signaling Technology®), EP300 (1:1000, Abcam), CBP (1:500, Cell Signaling Technology®), Cas9 (1:1000, Cell Signaling Technology®), cleaved-PARP1 (1:1000, Cell Signaling Technology), cleaved Caspase-3 (1:1000, Cell Signaling Technology®), β-actin (1:1000, Cell Signaling Technology®), GATA3 (1:1000, EMD Millipore™), TFAP2β (1:1000, Cell Signaling Technology®), Vinculin (1:1000, EMD Millipore™), CRBN (1:1000, Cell Signaling Technology®), HAND2 (1:1000, Santa Cruz Biotechnology). Secondary antibodies were horseradish peroxidase (HRP)-conjugated anti-rabbit or anti-mouse (1:5000, Santa Cruz Biotechnology), incubated prior to exposure to enhanced chemiluminescence reagents (GE, Amersham). For immunoprecipitation, equal amounts of protein were diluted in buffer C as described in Mansour et al. Science 346:1373-1377 (2014) and incubated with antibodies covalently conjugated to Dynabeads™ M-270 beads (Thermo-Fisher Scientific) overnight according to the manufacturer's directions. Antibodies used included: H3K27ac, EP300 (Abcam), CBP, TFAP2β (Cell Signaling Technology®), rabbit immunoglobulin G (IgG) (Santa Cruz Biotechnology®). Immunoprecipitated protein was isolated as per the manufacturer's directions and subjected to western blotting, as described above, or mass spectrometry.

[3] = target: T1, CBP; assay: SILAC mass spectrometry of the nuclear proteome of Kelly cells (CBP); format: cell-based; settings: 500 nM, 24 h, nuclear extract
Experimental: Because JQAD1 interacted preferentially with both EP300 and CRBN, whether JQAD1 preferentially induces degradation of EP300 compared to CBP in MYCN-amplified neuroblastoma cells was examined. […] To further examine the specificity of JQAD1 for EP300, an analysis of the effects of JQAD1 in stable isotope labeling by amino acids in cell culture (SILAC)-labelled Kelly cells was performed (FIG. 3F). Kelly cells were cultured with SILAC media containing heavy or light-labelled arginine and lysine. Heavy labelled cells were treated with 500 nM JQAD1, and light-labelled cells treated with dimethyl sulfoxide (DMSO) for 24 h, prior to nuclear extraction and protein lysis. […] Protein abundance was then analyzed by mass spectrometry, to determine global changes in the nuclear proteome. […] To expand upon these findings, three NB cell lines, Kelly, NGP and SIMA, which have high levels of CRBN (e.g., protein or mRNA) (FIG. 8C), were treated with JQAD, and the effects on specific proteins were measured by western blotting. […] Peptides were detected, isolated, and fragmented to produce a tandem mass spectrum of specific fragment ions for each peptide. Peptide sequences and protein identity were determined by matching protein databases with the acquired fragmentation pattern by Sequest® (Thermo Fisher Scientific) (Eng et al. J. Am. Soc. Mass Spectrom. 5:976-89 (1994)). […]

C[C@H](N(Cc1ccc(F)cc1)C(=O)CN1C(=O)O[C@@]2(CCc3cc(NC(=O)CCCCCCCCCCCNc4ccc5c(c4)C(=O)N(C4CCC(=O)NC4=O)C5=O)ccc32)C1=O)C(F)(F)F (stereo partly drawn) [JQAD1, 12-((2-(2,6-dioxopiperidin-3-yl)-1,3-dioxoisoindolin-5-yl)amino)-N-((R)-3′-(2-((4-fluorobenzyl)((S)-1,1,1-trifluoropropan-2-yl)amino)-2-oxoethyl)-2′,4′-dioxo-2,3-dihydrospiro[indene-1,5′-oxazolidin]-5-yl)dodecanamide]
CBP immunostaining of tumors [1]: CBP immunostaining was retained
chromatin-bound MYCN [2]: loss of both EP300 and chromatin-bound MYCN proteins
CBP protein abundance [3]: remained detectable at similar levels as controls
